Experiments:
bedstraw = test: Test B pre/postemergence bedstraw; assay type: in vivo, Galium aparine
Outline: (§1)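 Herbicidal effect was estimated by eye on a ten-point control scale after plants spent twelve to sixteen days in a greenhouse following soil or foliar treatment. Foliar sprays targeted plants at one to four leaves; all doses were formulated in a non-phytotoxic solvent with surfactant.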

blackgrass = test: Test B pre/postemergence blackgrass; assay type: in vivo, Alopecurus myosuroides
Outline: as §1

surinam grass = test: Test B pre/postemergence surinam grass; assay type: in vivo, Brachiaria decumbens
Outline: as §1

cocklebur = test: Test B pre/postemergence cocklebur; assay type: in vivo, Xanthium strumarium
Outline: as §1

corn = test: Test B pre/postemergence corn; assay type: in vivo, Zea mays
Outline: as §1

crabgrass = test: Test B pre/postemergence crabgrass; assay type: in vivo, Digitaria sanguinalis
Outline: as §1

giant foxtail = test: Test B pre/postemergence giant foxtail; assay type: in vivo, Setaria faberii
Outline: as §1

morningglory = test: Test B pre/postemergence morningglory; assay type: in vivo, Ipomoea hederacea
Outline: as §1

pigweed = test: Test B pre/postemergence pigweed; assay type: in vivo, Amaranthus retroflexus
Outline: as §1

rape = test: Test B pre/postemergence rape; assay type: in vivo, Brassica napus
Outline: as §1

soybean = test: Test B pre/postemergence soybean; assay type: in vivo, Glycine max
Outline: as §1

sugar beet = test: Test B pre/postemergence sugar beet; assay type: in vivo, Beta vulgaris
Outline: as §1

velvetleaf = test: Test B pre/postemergence velvetleaf; assay type: in vivo, Abutilon theophrasti
Outline: as §1

wheat = test: Test B pre/postemergence wheat; assay type: in vivo, Triticum aestivum
Outline: as §1

wild oat = test: Test B pre/postemergence wild oat; assay type: in vivo, Avena fatua
Outline: as §1

purple nutsedge = test: Test B pre/postemergence purple nutsedge; assay type: in vivo, Cyperus rotundus
Outline: as §1

[1] = Postemergence, Rate 125 g/ha, scale of 0 to 10 where 0 is no effect and 10 is complete control
[2] = Preemergence, Rate 62 g/ha, scale of 0 to 10 where 0 is no effect and 10 is complete control
[3] = Preemergence, Rate 125 g/ha, 0 is no effect, 10 is complete control
[4] = Preemergence, Rate 250 g/ha, scale 0 to 10, 0 is no effect, 10 is complete control
[5] = Preemergence, Rate 500 g/ha, scale 0 to 10 (0 no effect, 10 complete control)
[6] = Rate 62 g/ha, Postemergence, scale of 0 to 10 where 0 is no effect and 10 is complete control
[7] = Rate 250 g/ha, Postemergence, scale 0 to 10, 0 is no effect, 10 is complete control
[8] = Rate 500 g/ha, Postemergence, scale 0 to 10

## CC(C)N(C(=O)n1oc(=O)n([C@H](C)c2ccccc2)c1=O)c1ccc(Cl)cc1 [Compound 178]
bedstraw; [1]
  Bedstraw plant response rating: 0
bedstraw; [2]
  Bedstraw plant response rating: 0
bedstraw; [3]
  Bedstraw plant response rating (0 to 10 scale): 0
bedstraw; [4]
  Bedstraw plant response rating: 0
bedstraw; [5]
  Bedstraw plant response rating: 0
bedstraw; [6]
  Bedstraw plant response rating: 0
bedstraw; [7]
  Plant response rating, Bedstraw: 0
bedstraw; [8]
  Bedstraw plant response rating: 0
blackgrass; [1]
  Blackgrass plant response rating: 0
blackgrass; [2]
  Blackgrass plant response rating: 0
blackgrass; [3]
  Blackgrass plant response rating (0 to 10 scale): 0
blackgrass; [4]
  Blackgrass plant response rating: 0
blackgrass; [5]
  Blackgrass plant response rating: 3
blackgrass; [6]
  Blackgrass plant response rating: 0
blackgrass; [7]
  Plant response rating, Blackgrass: 0
Surinam grass; [1]
  B. signalgrass plant response rating: 0
Surinam grass; [2]
  B. signalgrass plant response rating: 6
Surinam grass; [3]
  B. signalgrass plant response rating (0 to 10 scale): 7
Surinam grass; [4]
  B. signalgrass plant response rating: 8
Surinam grass; [5]
  B. signalgrass plant response rating: 9
Surinam grass; [6]
  B. signalgrass plant response rating: 0
Surinam grass; [7]
  Plant response rating, B. signalgrass: 0
Surinam grass; Rate 500 g/ha, Postemergence, scale 0 to 10, 0 no effect, 10 complete control
  B. signalgrass plant response rating: 2
cocklebur; [1]
  Cocklebur plant response rating: 0
cocklebur; [2]
  Cocklebur plant response rating: 0
cocklebur; [3]
  Cocklebur plant response rating (0 to 10 scale): 0
cocklebur; [4]
  Cocklebur plant response rating: 0
cocklebur; [5]
  Cocklebur plant response rating: 0
cocklebur; [6]
  Cocklebur plant response rating: 0
cocklebur; [7]
  Plant response rating, Cocklebur: 0
cocklebur; [8]
  Cocklebur plant response rating: 0
corn; [1]
  Corn plant response rating: 0
corn; [2]
  Corn plant response rating: 0
corn; [3]
  Corn plant response rating (0 to 10 scale): 0
corn; [4]
  Corn plant response rating: 0
corn; [5]
  Corn plant response rating: 0
corn; [6]
  Corn plant response rating: 0
corn; [7]
  Plant response rating, Corn: 0
corn; [8]
  Corn plant response rating: 0
crabgrass; [1]
  Crabgrass plant response rating: 0
crabgrass; [2]
  Crabgrass plant response rating: 0
crabgrass; [3]
  Crabgrass plant response rating (0 to 10 scale): 2
crabgrass; [4]
  Crabgrass plant response rating: 8
crabgrass; [5]
  Crabgrass plant response rating: 9
crabgrass; [6]
  Crabgrass plant response rating: 0
crabgrass; [7]
  Plant response rating, Crabgrass: 0
crabgrass; [8]
  Crabgrass plant response rating: 2
Giant foxtail; [1]
  Giant foxtail plant response rating: 0
Giant foxtail; [2]
  Giant foxtail plant response rating: 4
Giant foxtail; [3]
  Giant foxtail plant response rating (0 to 10 scale): 4
Giant foxtail; [4]
  Giant foxtail plant response rating: 8
Giant foxtail; [5]
  Giant foxtail plant response rating: 9
Giant foxtail; [6]
  Giant foxtail plant response rating: 0
Giant foxtail; [7]
  Plant response rating, Giant foxtail: 0
Giant foxtail; [8]
  Giant foxtail plant response rating: 2
morningglory; [1]
  Morningglory plant response rating: 2
morningglory; [2]
  Morningglory plant response rating: 0
morningglory; [3]
  Morningglory plant response rating (0 to 10 scale): 0
morningglory; [4]
  Morningglory plant response rating: 0
morningglory; [5]
  Morningglory plant response rating: 0
morningglory; [6]
  Morningglory plant response rating: 2
morningglory; [7]
  Plant response rating, Morningglory: 2
morningglory; [8]
  Morningglory plant response rating: 3
pigweed; [1]
  Redroot pigweed plant response rating: 7
pigweed; [2]
  Redroot pigweed plant response rating: 0
pigweed; [3]
  Redroot pigweed plant response rating (0 to 10 scale): 0
pigweed; [4]
  Redroot pigweed plant response rating: 6
pigweed; [5]
  Redroot pigweed plant response rating: 10
pigweed; [6]
  Redroot pigweed plant response rating: 0
pigweed; [8]
  Redroot pigweed plant response rating: 7
rape; [1]
  Rape plant response rating: 0
rape; [2]
  Rape plant response rating: 0
rape; [3]
  Rape plant response rating (0 to 10 scale): 0
rape; [4]
  Rape plant response rating: 0
rape; [5]
  Rape plant response rating: 0
rape; [6]
  Rape plant response rating: 0
rape; [7]
  Plant response rating, Rape: 0
rape; [8]
  Rape plant response rating: 0
soybean; [1]
  Soybean plant response rating: 1
soybean; [2]
  Soybean plant response rating: 0
soybean; [3]
  Soybean plant response rating (0 to 10 scale): 0
soybean; [4]
  Soybean plant response rating: 0
soybean; [5]
  Soybean plant response rating: 0
soybean; [6]
  Soybean plant response rating: 1
soybean; [7]
  Plant response rating, Soybean: 2
soybean; [8]
  Soybean plant response rating: 2
Sugar beet; [1]
  Sugarbeets plant response rating: 0
Sugar beet; [2]
  Sugarbeets plant response rating: 0
Sugar beet; [3]
  Sugarbeets plant response rating (0 to 10 scale): 0
Sugar beet; [4]
  Sugarbeets plant response rating: 0
Sugar beet; [5]
  Sugarbeets plant response rating: 0
Sugar beet; [6]
  Sugarbeets plant response rating: 0
Sugar beet; [7]
  Plant response rating, Sugarbeets: 0
Sugar beet; [8]
  Sugarbeets plant response rating: 0
velvetleaf; [2]
  Velvetleaf plant response rating: 0
velvetleaf; [3]
  Velvetleaf plant response rating (0 to 10 scale): 0
velvetleaf; [4]
  Velvetleaf plant response rating: 0
velvetleaf; [5]
  Velvetleaf plant response rating: 0
velvetleaf; [7]
  Plant response rating, Velvetleaf: 0
velvetleaf; [8]
  Velvetleaf plant response rating: 0
wheat; [2]
  Wheat plant response rating: 0
wheat; [3]
  Wheat plant response rating (0 to 10 scale): 0
wheat; [4]
  Wheat plant response rating: 0
wheat; [5]
  Wheat plant response rating: 0
wheat; [7]
  Plant response rating, Wheat: 0
wheat; [8]
  Wheat plant response rating: 2
Wild oat; [2]
  Wild oats plant response rating: 0
Wild oat; [3]
  Wild oats plant response rating (0 to 10 scale): 0
Wild oat; [4]
  Wild oats plant response rating: 0
Wild oat; [5]
  Wild oats plant response rating: 3
Wild oat; [7]
  Plant response rating, Wild oats: 0
Wild oat; [8]
  Wild oats plant response rating: 0
Purple nutsedge; [1]
  Nutsedge plant response rating: 0
Purple nutsedge; [2]
  Nutsedge plant response rating: 0
Purple nutsedge; [3]
  Nutsedge plant response rating (0 to 10 scale): 0
Purple nutsedge; [4]
  Nutsedge plant response rating: 0
Purple nutsedge; [5]
  Nutsedge plant response rating: 0
Purple nutsedge; [6]
  Nutsedge plant response rating: 0
Purple nutsedge; [7]
  Plant response rating, Nutsedge: 0
Purple nutsedge; [8]
  Nutsedge plant response rating: 0
